Test results from patent US20130333715A1, “SHAMPOO COMPOSITIONS AND METHODS OF MAKING SAME” (The Procter & Gamble Company, priority 2012, published 2013).

Key:
[1] = 1:1 complex, fully deprotonated chelant, 25° C., 0.1M ionic strength; cited from earlier work
[2] = 1:1 complex, fully deprotonated chelant, 25° C., 0.1M ionic strength; cited from earlier work; remark: listed apart in the source
[3] = Calculated conditional stability constants for chelants with Fe^+3 at specified pH
Description: The gradual change in ligand species as pH changes can be represented using alpha (α) coefficients, defined as: [formula] […] By combining stability (K) and alpha (α) constants at a given pH, the formula below provides the effective chelating power of a chelant.

[4] = Calculated conditional stability constants for chelants with Ca^+2 at specified pH; assay type: physicochemical
Description: (§1) However, as the pH range of the present compositions are acidic (i.e., less than 7), the log alpha value (αm) is considered to be constant and approximately negligible.
The calculated stability constants for a range of chelants with Fe^+3, Cu^+2, and Ca^+2 are given below in Table 3: […]

[5] = Calculated conditional stability constants for chelants with Cu^+2 at specified pH; assay type: physicochemical
Description: as §1

[6] = 1:1 complex, fully deprotonated chelant, 25° C., 0.1M ionic strength; cited from earlier work; remark: listed apart in the source

O=P(O)(O)CN(CCN(CP(=O)(O)O)CP(=O)(O)O)CCN(CP(=O)(O)O)CP(=O)(O)O [DTPMP, diethylenetriamine penta(methylene phosphonic acid)]
log K Ca [1]: 7.1 | log K Fe [2]: 26.5 | log Conditional Stability Constant (@ pH) Fe^+3 ([3]; pH 2): −2.10 | log Conditional Stability Constant (@ pH) Fe^+3 ([3]; pH 3): 1.90 | log Conditional Stability Constant (@ pH) Fe^+3 ([3]; pH 4): 5.90 | log Conditional Stability Constant (@ pH) Fe^+3 ([3]; pH 5): 9.90 | log Conditional Stability Constant (@ pH) Fe^+3 ([3]; pH 6): 13.87 | log Conditional Stability Constant (@ pH) Fe^+3 ([3]; pH 7): 17.68 | log Conditional Stability Constant (@ pH) Fe^+3 ([3]; pH 8): 20.85 | log Conditional Stability Constant (@ pH) Ca^+2 ([4]; pH 2): −21.50 | log Conditional Stability Constant (@ pH) Ca^+2 ([4]; pH 3): −17.50 | log Conditional Stability Constant (@ pH) Ca^+2 ([4]; pH 4): −13.50 | log Conditional Stability Constant (@ pH) Ca^+2 ([4]; pH 5): −9.50 | log Conditional Stability Constant (@ pH) Ca^+2 ([4]; pH 6): −5.53 | log Conditional Stability Constant (@ pH) Ca^+2 ([4]; pH 7): −1.72 | log Conditional Stability Constant (@ pH) Ca^+2 ([4]; pH 8): 1.45 | log Conditional Stability Constant (@ pH) Cu^+2 ([5]; pH 2): −9.10 | log Conditional Stability Constant (@ pH) Cu^+2 ([5]; pH 3): −5.10 | log Conditional Stability Constant (@ pH) Cu^+2 ([5]; pH 4): −1.10 | log Conditional Stability Constant (@ pH) Cu^+2 ([5]; pH 5): 2.90 | log Conditional Stability Constant (@ pH) Cu^+2 ([5]; pH 6): 6.87 | log Conditional Stability Constant (@ pH) Cu^+2 ([5]; pH 7): 10.68 | log Conditional Stability Constant (@ pH) Cu^+2 ([5]; pH 8): 13.85 | log K Cu [6]: 19.5
